From patent US20200113982A1, “Composition and Uses Thereof” (Arborvitae Health and Wellbeing Pty. Ltd., priority 2015, published 2020)

Assay: Case Study 5: Patient A, high cholesterol, blood tests
Format: in vivo, human
Conditions: patient-reported, earlier statin use
Protocol: Patient A is a person who has had high cholesterol for approximately 20 years, and who is reasonably fit and is not overweight.
Patient A has been taking 100 mL of the composition of Example 1 each day for a period of 3 weeks. The results of a blood test on 14 Jan. 2015 (prior to taking the composition of Example 1) and a blood test on 24 Jun. 2015 (after taking the composition of Example 1 for 3 weeks) gave the results in Table 6: […]

Structure (SMILES): CC(C)c1c(C(=O)Nc2ccccc2)c(-c2ccccc2)c(-c2ccc(F)cc2)n1CC[C@@H](O)C[C@@H](O)CC(=O)O [Lipitor]
- side effects: muscle aches and pain, tiredness, joint pain and a general feeling of not being well
